Assay results: PMC5845869 (Frontiers in Microbiology, 2018)
Values after ≈ are worked out from the molar mass of the structure shown. Like-named read-outs stand apart in the source and are kept apart here. Ends that are not written are not given here. Peptide text beside a SMILES is read from it.

Key:
[1] = test system: Candida krusei CBS 573
Method: (§1) Susceptibility tests were performed in low ionic strength broth medium (LCM: 0.5% glucose, 0.25% yeast extract, 0.0125% peptone (w/v)) and in RPMI 1640 medium (Sigma-Aldrich, St Louis, MO, USA) supplemented with 0.03% (w/v) L-glutamine and buffered to pH 7.0 with 0.165 M 4-morpholinopropanesulfonic acid (Sigma-Aldrich, St Louis, MO, USA).
(§2) Antifungal susceptibility tests were performed with nNFAP2, rNFAP2, and sNFAP2 and its peptide fragments in LCM medium against yeast isolates (10^5 cells ml^−1) according to the broth microdilution method described by Tóth et al. ([2016]). Final drug concentration ranged from 25 to 0.098 μg ml^−1 for rNFAP2 and sNFAP2, and from 100 to 6.25 μg ml^−1 for the synthetic peptide fragments. The rNFAP2 was tested against nine yeast isolates, while the sNFAP2 and the synthetic peptide fragments against C. albicans ATCC 10231, C. krusei CBS 573, C. parapsilosis CBS 604, and S. cerevisiae SZMC 0644.
(§3) LCM plates were incubated at 30°C, while RPMI 1640 plates at 35°C for 48 h without shaking, then the absorbance (OD620) was measured with a microtiter plate reader (SPECTROstar Nano, BMG Labtech, Ortenberg, Germany) after resuspension of the cultures with pipette. The absorbance of the untreated control cultures was referred to 100% growth in each case.
(§4) All susceptibility tests were repeated at least two times in three replicates.

[2] = test system: Candida parapsilosis CBS 604
Method: as §1, §2, §3, §4

[3] = test system: Candida albicans ATCC 10231
Method: as §1, §2, §3, §4

[4] = test system: Saccharomyces cerevisiae SZMC 0644
Method: as §1, §2, §3, §4

[5] = test system: C. albicans ATCC 10231 cells; assay: Propidium iodide (PI) staining, plasma membrane disruption; type: cell-based, Candida albicans; conditions: treatment at MIC in LCM, 10 min, 30°C; 5 μg ml^−1 PI; fluorescence microscopy
Method: After the treatment, cells were washed with LCM, and then stained with 5 μg ml^−1 PI for 10 min at room temperature in the dark, and then they were washed again with LCM and resuspended in final volume of 100 μl LCM. Cells treated with 70% (v/v) ethanol for 10 min at 4°C were used as positive staining control. Untreated cells were used as negative staining control.
Yeast cells were visualized by light and fluorescence microscopy (Carl Zeiss Axiolab LR 66238C; Zeiss, Oberkochen, Germany) and photographed with a microscope camera (Zeiss AxioCam ERc 5s; Zeiss, Oberkochen, Germany).

[6] = Thermal unfolding followed by ECD spectroscopy; type: physicochemical; conditions: for thermal denaturation reversibility: ECD at 95°C, then re-measured after cooling, 5 min at 25°C; for Tm (melting temperature of the native protein structure): ECD at 228 nm, 25 to 95°C at 1°C min^−1, approx. 0.1 mg ml^−1 in H2O, inflection of sigmoidal fit; for native fold remains intact up to: thermal unfolding followed by ECD
Method: ECD spectroscopic measurements were performed using a Jasco-J815 spectropolarimeter (JASCO Corporation, Tokyo, Japan), in the far-UV range (185–260 nm). Protein samples were dissolved in pure H2O in approximately 0.1 mg ml^−1 concentration and measured in a 0.1 cm pathlength quartz cuvette. First, ECD spectra of samples were recorded at 25°C with a scan speed of […]. […] The system was allowed to equilibrate for 1 min before measurements were taken at each temperature point.
The obtained melting curves were fitted with an inverse sigmoidal function of which inflection point designated the melting temperature (Tm) of the native protein structure.
ECD spectra were also recorded at 95°C, the final temperature of the thermal unfolding experiments, then samples were allowed to cool and measured again after 5 min of equilibration at 25°C. The reported spectra are accumulations of 10 scans, from which the similarly recorded, corresponding solvent spectrum was subtracted. Data are given as molar ellipticities. Accurate protein sample concentrations for the corrections of ECD spectra were determined using analytical RP-HPLC.

[7] = test system: Candida tropicalis CBS 94; assay: MIC, broth microdilution in LCM; type: cell-based; conditions: 10^5 cells ml^−1, 48 h, 30°C, MIC = growth ≤ 5% (OD620)
Method: as §1, §2, §3, §4

[8] = test system: Candida lusitaniae CBS 6936; assay: MIC, broth microdilution in LCM; type: cell-based; conditions: 10^5 cells ml^−1, 48 h, 30°C, MIC = growth ≤ 5% (OD620)
Method: as §1, §2, §3, §4

[9] = test system: Candida guilliermondii CBS 566; assay: MIC, broth microdilution in LCM; type: cell-based; conditions: 10^5 cells ml^−1, 48 h, 30°C, MIC = growth ≤ 5% (OD620)
Method: as §1, §2, §3, §4

[10] = test system: Candida glabrata CBS 138; assay: MIC, broth microdilution in LCM; type: cell-based; conditions: 10^5 cells ml^−1, 48 h, 30°C, MIC = growth ≤ 5% (OD620)
Method: as §1, §2, §3, §4

[11] = test system: Schizosaccharomyces pombe SZMC 0142; assay: MIC, broth microdilution in LCM; type: cell-based; conditions: 10^5 cells ml^−1, 48 h, 30°C, MIC = growth ≤ 5% (OD620)
Method: as §1, §2, §3, §4

[12] = LCM, 10^5 cells ml^−1, 48 h, 30°C, MIC = growth ≤ 5% (OD620)

Compound | MIC ([1]; CBS 573, 48 h) | MIC ([2]; CBS 604, 48 h) | MIC ([3]; ATCC 10231, 48 h) | MIC ([4]; SZMC 0644, 48 h) | Plasma membrane disruption (PI staining) [5] | further results
CC[C@H](C)[C@H](NC(=O)[C@H](CS)NC(=O)[C@H](CC(N)=O)NC(=O)[C@H](CC(C)C)NC(=O)[C@H](CCC(N)=O)NC(=O)CNC(=O)CNC(=O)[C@H](CCC(N)=O)NC(=O)[C@H](Cc1c[nH]c2ccccc12)NC(=O)[C@H](CCC(=O)O)NC(=O)[C@H](CS)NC(=O)[C@H](CCCCN)NC(=O)CNC(=O)[C@H](CO)NC(=O)[C@@H](NC(=O)[C@@H](NC(=O)[C@H](CCCCN)NC(=O)[C@H](CO)NC(=O)[C@H](CCCCN)NC(=O)[C@H](CC(=O)O)NC(=O)[C@H](CO)NC(=O)[C@@H]1CCCN1C(=O)CNC(=O)[C@H](CO)NC(=O)[C@H](Cc1c[nH]cn1)NC(=O)[C@H](Cc1ccc(O)cc1)NC(=O)[C@@H](N)CCCCN)C(C)C)[C@@H](C)CC)C(=O)N[C@@H](C)C(=O)N[C@H](C(=O)O)[C@@H](C)O [Fr-1] (H-KYHSGPSDKSKVISGKCEWQGGQLNCIAT-OH; N-terminus and C-terminus assumed) | 100 µg/mL (≈ 32 µM) | >100 µg/mL | >100 µg/mL | 100 µg/mL (≈ 32 µM) |  | 
CC[C@H](C)[C@H](N)C(=O)N[C@@H](C)C(=O)N[C@H](C(=O)N[C@@H](CO)C(=O)N1CCC[C@H]1C(=O)N[C@@H](Cc1ccc(O)cc1)C(=O)N[C@@H](Cc1ccc(O)cc1)C(=O)N[C@@H](C)C(=O)N[C@@H](CS)C(=O)N[C@@H](CC(N)=O)C(=O)N[C@@H](CS)C(=O)N1CCC[C@H]1C(=O)N[C@@H](CC(N)=O)C(=O)N[C@@H](CC(N)=O)C(=O)N[C@@H](CS)C(=O)N[C@@H](CCCCN)C(=O)N[C@@H](Cc1c[nH]cn1)C(=O)N[C@@H](CCCCN)C(=O)N[C@@H](CCCCN)C(=O)NCC(=O)N[C@@H](CO)C(=O)NCC(=O)N[C@@H](CS)C(=O)O)[C@@H](C)O [Fr-2] (H-IATSPYYACNCPNNCKHKKGSGC-OH; N-terminus and C-terminus assumed) |  |  |  |  | prompt plasma membrane disruption effect | 
CC[C@H](C)[C@H](NC(=O)[C@H](CS)NC(=O)[C@H](CC(N)=O)NC(=O)[C@H](CC(C)C)NC(=O)[C@H](CCC(N)=O)NC(=O)CNC(=O)CNC(=O)[C@H](CCC(N)=O)NC(=O)[C@H](Cc1c[nH]c2ccccc12)NC(=O)[C@H](CCC(=O)O)NC(=O)[C@H](CS)NC(=O)[C@H](CCCCN)NC(=O)CN)C(=O)N[C@@H](C)C(=O)N[C@H](C(=O)O)[C@@H](C)O [Fr-3] (H-GKCEWQGGQLNCIAT-OH; N-terminus and C-terminus assumed) | >100 µg/mL | >100 µg/mL | >100 µg/mL | >100 µg/mL | did not disrupt the plasma membrane | 
NCCCC[C@H](NC(=O)[C@H](CCCCN)NC(=O)[C@H](Cc1c[nH]cn1)NC(=O)[C@H](CCCCN)NC(=O)[C@H](CS)NC(=O)[C@H](CC(N)=O)NC(=O)[C@@H](N)CC(N)=O)C(=O)NCC(=O)N[C@@H](CO)C(=O)NCC(=O)N[C@@H](CS)C(=O)O [Fr-4] (H-NNCKHKKGSGC-OH; N-terminus and C-terminus assumed) | 50 µg/mL (≈ 42.5 µM) | 50 µg/mL (≈ 42.5 µM) | 50 µg/mL (≈ 42.5 µM) | 50 µg/mL (≈ 42.5 µM) | prompt plasma membrane disruption effect | 
CC[C@H](C)[C@H](N)C(=O)N[C@@H](C)C(=O)N[C@H](C(=O)N[C@@H](CO)C(=O)N1CCC[C@H]1C(=O)N[C@@H](Cc1ccc(O)cc1)C(=O)N[C@@H](Cc1ccc(O)cc1)C(=O)N[C@@H](C)C(=O)N[C@@H](CS)C(=O)N[C@@H](CC(N)=O)C(=O)N[C@@H](CS)C(=O)N1CCC[C@H]1C(=O)O)[C@@H](C)O [Fr-6] (H-IATSPYYACNCP-OH; N-terminus and C-terminus assumed) | >100 µg/mL | >100 µg/mL | >100 µg/mL | >100 µg/mL |  | 
CC[C@H](C)[C@H](N)C(=O)N[C@@H](C)C(=O)NCC(=O)N[C@@H](C)C(=O)N[C@@H](Cc1c[nH]cn1)C(=O)N[C@@H](CCCCN)C(=O)N[C@@H](CS)C(=O)N[C@@H](CCCCN)C(=O)N1CCC[C@H]1C(=O)N[C@@H](CS)C(=O)N[C@@H](Cc1ccc(O)cc1)C(=O)NCC(=O)N[C@@H](Cc1ccc(O)cc1)C(=O)N[C@@H](CCCCN)C(=O)N[C@H](C(=O)N[C@@H](CC(N)=O)C(=O)N[C@@H](CO)C(=O)N[C@@H](CS)C(=O)N[C@@H](CS)C(=O)N[C@@H](CC(N)=O)C(=O)N[C@@H](CO)C(=O)N1CCC[C@H]1C(=O)N[C@@H](CC(N)=O)C(=O)O)[C@@H](C)O [Sh-Fr-2] (H-IAGAHKCKPCYGYKTNSCCNSPN-OH; N-terminus and C-terminus assumed) |  |  |  |  | prompt plasma membrane disruption effect | 
NCCCC[C@H](NC(=O)CNC(=O)[C@H](CCCCN)NC(=O)[C@H](CC(N)=O)NC(=O)[C@H](CS)NC(=O)[C@@H](N)CS)C(=O)N[C@@H](CC(N)=O)C(=O)N[C@@H](CCCCN)C(=O)NCC(=O)N[C@@H](CO)C(=O)N[C@@H](Cc1c[nH]cn1)C(=O)O [Sh-Fr-4] (H-CCNKGKNKGSH-OH; N-terminus and C-terminus assumed) | 50 µg/mL (≈ 42.5 µM) | 50 µg/mL (≈ 42.5 µM) | 50 µg/mL (≈ 42.5 µM) | 50 µg/mL (≈ 42.5 µM) | prompt plasma membrane disruption effect | 
IATSPYYACNCPNNCKHKKGSGCKYHSGPSDKSKVISGKCEWQGGQLNCIAT (disulfide (positions not given here)) [nNFAP2] |  |  |  |  |  | thermal denaturation reversibility [6]: reversible; Tm (melting temperature of the native protein structure) [6]: 72.92 °C; native fold remains intact up to [6]: approximately 70 °C; MIC [1, 12]: 12.5 µg/mL; MIC [2, 12]: 1.56 µg/mL; MIC [3, 12]: 6.25 µg/mL; MIC [4, 12]: 3.125 µg/mL; MIC [7]: 1.56 µg/mL; MIC [8]: 3.125 µg/mL; MIC [9]: 1.56 µg/mL; MIC [10]: 1.56 µg/mL; MIC [11]: 1.56 µg/mL
IATSPYYACNCPNNCKHKKGSGCKYHSGPSDKSKVISGKCEWQGGQLNCIAT (disulfide (positions not given here)) [sNFAP2] |  |  |  |  |  | thermal denaturation reversibility [6]: reversible; Tm (melting temperature of the native protein structure) [6]: 74.94 °C; native fold remains intact up to [6]: approximately 70 °C; MIC [1, 12]: 12.5 µg/mL; MIC [2, 12]: 1.56 µg/mL; MIC [3, 12]: 6.25 µg/mL; MIC [4, 12]: 3.125 µg/mL
KYHSGPSDKSKVIS [Fr-5] | >100 µg/mL | >100 µg/mL | >100 µg/mL | >100 µg/mL |  | 
